Assay results published in patent US11925622B2, “Role of novel carbazole linked 1, 2, 3- triazole analogs in alleviating methylglyoxal-mediated late diabetic vascular complications” (priority 2021, dated 2024).
Where “and” joins values, the source holds several entries; their conditions need not be identical. Identical values can stand only once.

What was measured:
[1] = system: MGO-mediated BSA glycation; test: In vitro antiglycation activity, MGO-BSA glycation assay (fluorescence); type: biochemical, bovine; conditions: for IC50 / % inhibition of MGO-BSA glycation: BSA 10 mg/mL, MGO 0.1 M, 24 h, 37° C.; for IC50: read-out: IC50 antiglycation, MGO-BSA model; for % inhibition of MGO-BSA glycation: compounds at 1 mM
Experimental: In vitro antiglycation activity: The MGO-BSA assay was performed as per optimized protocol of Jahan, H. et al with slight modifications. Initially, the antiglycation activity of parent compound carbazole (1), and carbazole-linked 1,2,3 triazoles 2-16 were identified at 1 mM using MGO-BSA model. […] BSA (10 mg/mL) incubated with MGO (0.1 M) for 24 h at 37° C. using phosphate-azide buffer (0.1 mM), served as a positive control. The wells with BSA only were taken as negative control. Whereas, rutin and quercetin were used as standard antiglycation agents. After 24 h of incubation, the fluorescence of each well was measured by using microplate reader (Varioskan lux, Thermo Fisher Scientific, 319 Scientific, USA) at 355 nm excitation, and 460 nm emission.
The % inhibition of MGO-BSA-mediated by carbazole-triazole derivatives was quantified by using the following formula: […]
The IC50 of active antiglycation compounds were identified by using EZ-FIT Enzyme Kinetics Program (Perrella Scientific Inc., Amherst, USA).

[2] = system: MGO-AGEs-induced ROS in THP-1 monocytes; test: Anti-oxidation activity, DCFH-DA assay of MGO-AGEs-mediated ROS in monocytes; type: cell-based, human; conditions: for ROS (DCF fluorescence) in MGO-AGEs-treated monocytes: 100 μM (maximum inhibition), MGO-AGEs 50 μg/mL, 24 h; for antioxidant activity / ROS production inhibition (in words): MGO-AGEs 50 μg/mL-treated THP-1 monocytes
Experimental: Anti-oxidation activity: The measurement of effect of derivatives on AGEs-mediated ROS was based on the previously reported protocol of Soumyarani and colleagues with slight amendments. Initially, 1×10^6 monocytes/mL were loaded in sterile 96-well flat bottom black fluorescent plate, and pre-incubated with DCFH-DA (10 μM; Sigma-Aldrich Chemical Corporation, St. Louis, Missouri, USA) for 45 min at 37° C. Followed by the incubation, antiglycating, non-toxic carbazole-linked triazole derivatives (10, 30, 50, and 100 μM) were added to the wells for 1 h before co-treatment of cells with MGO-AGEs (50 μg/mL) for next 24 h. Next, the fluorometric measurement of converted DCFH into oxidized DCF product was carried out via spectrofluorimeter (Varioskanmicroplate reader, Thermo Fisher Scientific, USA) using 485 nm excitation and 520 nm emission wavelengths. Various controls were plated in each experiment. Wells containing culture RPMI with MGO-AGEs (50 μg/mL) and H2O2 ([…]) served as positive controls, while cells containing BSA were taken as negative control.

[3] = system: NF-κB (p65) translocation in monocytes; test: NF-κB (p65) translocation analysis by immunocytochemistry; type: cell-based, human; conditions: compounds 100 μM, 1 h pre-incubation; AGEs 50 μg/mL 1 h; MGO-AGEs control 75 RFU, BSA 11 RFU
Experimental: NF-κB (p^65) translocation analysis: The monocytes at the density of 1×10^6 cells/mL were pre-incubated with compounds (100 μM) for an h, and then co-incubated with AGEs (50 μg/mL) for another 1 h in a 24-well plate at 37° C. Following treatment, cells were fixed with paraformaldehyde (4% PFA; 10 min), and permeabilized with Triton X-100 (0.2%; 10 min). Next, the cells were rinsed with chilled PBS three times, and incubated with bovine serum albumin (1% BSA; 1 h) to block the non-specific binding sites. Cells were exposed to primary antibody against NF-κB (p 65) (1:300 dilution, Thermo Fisher Scientific, Waltham, MA, USA) for overnight at 4° C. Subsequently followed by washing the cells with chilled PBS three times, secondary antibody (polyclonal fluorescein isothiocyanate (FITC)-conjugated antibody) to rabbit IgG (1:1000 dilution, Abeam, Cambridge, UK) was used.
Nuclei were counterstained by using DAPI (Thermo Fisher Scientific, Waltham, MA, USA). The BSA-treated monocytes (50 μg/mL) had served as a negative control, while AGEs-treated monocytes (50 μg/mL) as positive control. All the images were taken by using Nikon microscope (Nikon, Tokyo, Japan). The quantification of images was carried out via ImageJ (Image processing and analysis in Java-NIH).

PGE2 = PGE2 levels analysis by ELISA in THP-1 culture supernatants; type: cell-based, human; conditions: THP-1, compounds 1 h, then AGEs 50 μg/mL
Experimental: PGE2 levels analysis: ELISA-based method was employed to identify the concentration of PGE2 in culture supernatants of THP-1 cells that was initially exposed with compounds for 1 h, and then stimulated with AGEs (50 μg/mL). All the steps were followed according to the manufacturer's protocols.

COX-2 = COX-2 protein levels analysis by immunoblotting; type: cell-based; conditions: human monocytes co-treated with MGO-AGEs 50 μg/mL; immunoblot densitometry
Experimental: COX-2 protein levels analysis: The 50 μg/mL of protein was loaded onto 10% sodium dodecyl sulfate-polymerized acrylamide gel electrophoresis (SDS-PAGE), and transferred to nitrocellulose membranes using power blotter XL System (Invitrogen; Thermo Fisher Scientific). Subsequently, the membrane was incubated for 1 h in 1% bovine serum albumin in PBS with 0.1% Tween-20 to block unspecified binding. The protein bands of the membrane were probed with primary monoclonal antibody COX-2 (Thermo Fisher Scientific, Waltham, MA, USA), and B-actin (Cloud-Clone Corp., Wuhan, China) for overnight at 4° C. Following incubation, the membrane was rinsed with tris buffer saline tween (TBST) three times, and then exposed to secondary antibody (HRP mouse mono anti-rabbit IgG; Abeam, Cambridge, UK) at room temperature for an hour. The washing was again carried three times with TBST, and then the membrane was exposed to ECL (Sangon biotech, Shanghai, China) to visualize the bands in Western Blot Detection System (Thermo Fisher Scientific, Waltham, MA, USA). The densitometry of immuno-positive COX-2, and β-actin bands was used by Image J.

Row | IC50 [1] | Structure (SMILES) | antiglycation activity in MGO-BSA model (in words) [1] | % inhibition of MGO-BSA glycation [1] | ROS (DCF fluorescence) in MGO-AGEs-treated monocytes [2] | antioxidant activity / ROS production inhibition (in words) [2] | NF-κB translocation in MGO-AGEs-treated monocytes [3] | effect on PGE2 levels (in words) (PGE2) | reduction in COX-2 levels compared to MGO-BSA-treated cells (COX-2)
1 | 135 ± 5 µM | Cc1ncc([N+](=O)[O-])n1CCn1cc(Cn2c3ccccc3c3ccccc32)nn1 [Compound 13, 9-((1-(2-(2-Methyl-5-nitro-1H-imidazol-1-yl)ethyl)-1H1,2,3-triazol-4-yl)methyl)-9H-carbazole] | good activity | 77.8% | 8.75 RFU | excellent ROS production inhibition | 54 RFU | reduced PGE2 levels significantly | –
2 | 104 ± 2 µM | C[C@@H]1O[C@@H](OC[C@H]2O[C@@H](Oc3c(-c4ccc(O)c(O)c4)oc4cc(O)cc(O)c4c3=O)[C@H](O)[C@@H](O)[C@@H]2O)[C@H](O)[C@H](O)[C@H]1O [Rutin, 2-(3,4-Dihydroxyphenyl)-5,7-dihydroxy-4-oxo-4H-chromen-3-yl 6-O-(6-deoxy-alpha-L-mannopyranosyl)-beta-D-glucopyranoside, reference compound] | – | 67% | 7.44 RFU | – | 43 RFU | relatively more suppression than quercetin | 1.65 fold
3 | – | N.S=C(S)N1CCCC1 [PDTC, reference compound] | – | – | 7.84 RFU | – | 45 RFU | relatively more suppression than quercetin | 1.60 fold

Row | Structure (SMILES) | IC50 [1] | antiglycation activity in MGO-BSA model (in words) [1] | % inhibition of MGO-BSA glycation [1] | ROS (DCF fluorescence) in MGO-AGEs-treated monocytes [2] | antioxidant activity / ROS production inhibition (in words) [2] | NF-κB translocation in MGO-AGEs-treated monocytes [3] | effect on PGE2 levels (in words) (PGE2) | reduction in COX-2 levels compared to MGO-BSA-treated cells (COX-2)
4 | O=C(Cn1cc(Cn2c3ccccc3c3ccccc32)nn1)c1ccc([N+](=O)[O-])cc1 [Compound 12, 2-(4-((9H-Carbazole-9-yl)methyl)-1H-1,2,3-triazole-1-y1)-1-(4-nitrophenyl)ethan-1-one] | 76.1 ± 6 µM | excellent antiglycation activity | 83.7% | 6.32 RFU | excellent ROS production inhibition | 33 RFU | reduced PGE2 levels significantly | 2.11 fold and 3 fold
